From US20190001106A1, “THERAPEUTIC DELIVERY DEVICE” (priority 2013, published 2019)

Test: preservation of doxorubicin efficacy in the implanted construct
Type: in vivo
Conditions: in STID-Dox-PLGA85/15 construct, 3 weeks inside an animal body about 37C

With COc1cccc2c1C(=O)c1c(O)c3c(c(O)c1C2=O)C[C@@](O)(C(=O)CO)C[C@@H]3O[C@H]1C[C@H](N)[C@H](O)[C@H](C)O1 [doxorubicin, Doxorubicin] the “efficacy of doxorubicin after residence in the construct” value was “efficacy is still preserved”.
